Data: patent US12421212B2, “Substituted benzenecarboxamides as IL-17A modulators” (DiCE Alpha, Inc., priority 2019, dated 2025)

Target: T1, IL-17A/A (Homo sapiens, UniProt Q16552)
T1 construct: purchased Genscript Z03228
T1 sequence (Q16552 24-155): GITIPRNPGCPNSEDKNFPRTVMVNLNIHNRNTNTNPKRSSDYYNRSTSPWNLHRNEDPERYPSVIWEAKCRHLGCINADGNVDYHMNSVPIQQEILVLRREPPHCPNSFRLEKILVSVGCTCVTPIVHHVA
Experiment: IL-17A/A HEK-Blue Cell Assay
Assay type: cell-based
Details: HEK-Blue IL-17A reporter cell line, SEAP readout at A630, 20 hours incubation with IL-17A/A, top concentration 10 uM, 1 uM or 0.3 uM; for IC50: read-out: IL-17A/A inhibition (pIC50) (converted)
Procedure: The HEK-Blue IL-17A reporter cell line (Fisher #NC1408637) was used for cell-based IL-17A/A inhibition assays. Cells were grown and prepared for assays according to the manufacturer's instructions. This cell line consists of HEK 293 cells that were designed to expressed IL-17RA, IL-17RC, and the ActI adapter molecule, the combination of which, when stimulated by IL-17A/A activates a NFκB promoter and drives expression of a recombinant Secreted Alkaline Phosphatase (SEAP) geneprotein. Media from the cells is then added to a development reagent (Quanti-Blue Substrate, Fisher #NC9711613), and read at A630.
Compounds were titrated in DMSO, with a top final compound concentration of 10 uM, 1 uM, or 0.3 uM, and added to the cells immediately before adding IL-17A/A (Genscript #Z03228). The cells, compound, and IL-17A/A were then incubated for 20 hours before media was removed for SEAP analysis. The resulting inhibition curve was then analyzed using Graphpad Prism 7.0, and IC50 values were determined using a 4-parameter nonlinear fit. DMSO was added to a universal final concentration of 0.1% to optimize background.

Structure (SMILES)	IC50	IL-17A/A inhibition (pIC50)
CCC(=O)N[C@@H](C(=O)N1CCN(C)CC1)[C@@H](C)c1ccc(NC(=O)[C@@H](NC(=O)c2ccnn2C(C)C)C2CCCCCC2)cc1 [Compound 232]	10 to 100 nM	–
CCC(=O)N[C@@H](C(=O)N1CCN(C)CC1)[C@@H](C)c1ccc(NC(=O)[C@@H](NC(=O)c2ccnn2CC)[C@H]2CC[C@H](C)CC2)c(F)c1 [Compound 234]	10 to 100 nM	–
CCC(=O)N[C@H](Cc1ccc(NC(=O)[C@@H](NC(=O)c2ccnn2CC)C2CCCCCC2)c(F)c1)C(=O)N1CCN(C)CC1 [Compound 235]	10 to 100 nM	–
CCC(=O)N[C@H](Cc1ccc(NC(=O)[C@@H](NC(=O)c2conc2CC)C2CCCCCC2)c(F)c1)C(=O)N1CCN(C)CC1 [Compound 236]	10 to 100 nM	–
CCCn1nccc1C(=O)N[C@H](C(=O)Nc1ccc(C[C@@H](NC(=O)CC)C(=O)N2CCN(C)CC2)cc1F)C1CCCCC1 [Compound 237]	10 to 100 nM	–
CCC(=O)N[C@H](Cc1ccc(NC(=O)[C@@H](NC(=O)c2ccnn2C(C)C)C2CCCCCC2)c(F)c1)C(=O)N1CCN(C)CC1 [Compound 238]	10 to 100 nM	–
CCC(=O)N[C@H](Cc1ccc(NC(=O)[C@@H](NC(=O)c2coc3cc(OC)ccc23)C2CCCCC2)c(F)c1)C(=O)N1CCN(C)CC1 [Compound 239]	10 to 100 nM	–
CCC(=O)N[C@@H](C(=O)N1CCN(C)CC1)[C@@H](C)c1ccc(NC(=O)[C@@H](NC(=O)c2ccnn2CC)C2CCC(F)(F)CC2)c(F)c1 [Compound 240]	10 to 100 nM	–
CCC(=O)N[C@@H](C(=O)N1CCN(C)CC1)[C@@H](C)c1ccc(NC(=O)[C@@H](NC(=O)c2ccnn2C(C)C)C2CCCCCC2)c(F)c1 [Compound 241]	< 10 nM	–
CCC(=O)N[C@@H](C(=O)N1CCN(C)CC1)[C@@H](C)c1ccc(NC(=O)[C@@H](NC(=O)C(F)(F)C2CC2)C2CCCCC2)c(F)c1 [Compound 242]	–	X2b (compounds were evaluated up to 1 uM and inhibited activity at 1 uM by less than 20%)
CCC(=O)N[C@@H](C(=O)N1CCN(C)CC1)[C@@H](C)c1ccc(NC(=O)[C@@H](NC(=O)C(F)(F)c2ccc3c(c2)OCO3)C2CCCCC2)c(F)c1 [Compound 244]	10 to 100 nM	–
CCC(=O)N[C@@H](C(=O)N1CCN(C)CC1)[C@@H](C)c1ccc(NC(=O)[C@@H](NC(=O)C(F)(F)c2ccc3[nH]ncc3c2)C2CCCCC2)c(F)c1 [Compound 245]	10 to 100 nM	–
CCC(=O)N[C@@H](C(=O)N1CCN(C)CC1)[C@@H](C)c1ccc(NC(=O)[C@@H](NC(=O)C(F)(F)c2cncc(OC)c2)C2CCCCC2)c(F)c1 [Compound 246]	10 to 100 nM	–
CCC(=O)N[C@@H](C(=O)N1CCN(C)CC1)[C@@H](C)c1ccc(NC(=O)[C@@H](NC(=O)C(F)(F)c2cccc(NS(C)(=O)=O)c2)C2CCCCC2)c(F)c1 [Compound 251]	10 to 100 nM	–
CCC(=O)N[C@@H](C(=O)N1CCN(C)CC1)[C@@H](C)c1ccc(NC(=O)[C@@H](NC(=O)C(F)(F)C2CCCCC2)C2CCCCC2)c(F)c1 [Compound 252]	10 to 100 nM	–
CCC(=O)N[C@@H](C(=O)N1CCN(C)CC1)[C@@H](C)c1ccc(NC(=O)[C@@H](NC(=O)c2ccnn2C(C)C)[C@H]2CC[C@H](C)CC2)c(F)c1 [Compound 253]	< 10 nM	–
CCC(=O)N[C@@H](C(=O)N1CCN(C)CC1)[C@@H](C)c1ccc(NC(=O)[C@@H](NC(=O)C(F)(F)c2cccc(C#N)c2)C2CCCCCC2)c(F)c1 [Compound 260]	< 10 nM	–
CCC(=O)N[C@@H](C(=O)N1CCN(C)CC1)[C@@H](C)c1ccc(NC(=O)[C@@H](NC(=O)C(F)(F)c2cncc(C#N)c2)C2CCCCCC2)c(F)c1 [Compound 261]	< 10 nM	–
CCC(=O)N[C@@H](C(=O)N1CCN(C)CC1)[C@@H](C)c1ccc(NC(=O)[C@@H](NC(=O)C(F)(F)c2cncc(OC)c2)C2CCCCCC2)c(F)c1 [Compound 262]	10 to 100 nM	–
CCC(=O)N[C@@H](C(=O)N1CCN(C)CC1)[C@@H](C)c1ccc(NC(=O)[C@@H](NC(=O)C(F)(F)c2cccc(C#N)c2)C2CCC(F)(F)CC2)c(F)c1 [Compound 263]	< 10 nM	–
CCC(=O)N[C@@H](C(=O)N1CCN(C)CC1)[C@@H](C)c1ccc(NC(=O)[C@@H](NC(=O)c2conc2CC)[C@H]2CC[C@H](C)CC2)c(F)c1 [Compound 264]	10 to 100 nM	–
CCC(=O)N[C@@H](C(=O)N1CCN(C)CC1)[C@@H](C)c1ccc(NC(=O)[C@@H](NC(=O)C(F)(F)c2cnn(CC)c2)C2CCCCCC2)c(F)c1 [Compound 267]	< 10 nM	–
CCC(=O)N[C@@H](C(=O)N1CCN(C)CC1)[C@@H](C)c1ccc(NC(=O)[C@@H](NC(=O)c2nonc2CC)C2CCCCCC2)c(F)c1 [Compound 270]	< 10 nM	–

Continued, in another order:

IC50	Structure (SMILES)	IL-17A/A inhibition (pIC50)
10 to 100 nM	CCC(=O)N[C@@H](C(=O)N1CCN(C)CC1)[C@@H](C)c1ccc(NC(=O)[C@@H](NC(=O)C(F)(F)c2cccc(OC)c2)C2CCCCC2)c(F)c1 [Compound 243]	–
10 to 100 nM	CCC(=O)N[C@@H](C(=O)N1CCN(C)CC1)[C@@H](C)c1ccc(NC(=O)[C@@H](NC(=O)c2coc3ccncc23)C2CCCCC2)c(F)c1 [Compound 247]	–
10 to 100 nM	CCC(=O)N[C@@H](C(=O)N1CCN(C)CC1)[C@@H](C)c1ccc(NC(=O)[C@@H](NC(=O)c2csc3ccccc23)C2CCCCC2)c(F)c1 [Compound 248]	–
10 to 100 nM	CCC(=O)N[C@@H](C(=O)N1CCN(C)CC1)[C@@H](C)c1ccc(NC(=O)[C@@H](NC(=O)c2csc3cnccc23)C2CCCCC2)c(F)c1 [Compound 249]	–
10 to 100 nM	CCC(=O)N[C@@H](C(=O)N1CCN(C)CC1)[C@@H](C)c1ccc(NC(=O)[C@@H](NC(=O)c2csc3ncccc23)C2CCCCC2)c(F)c1 [Compound 250]	–
10 to 100 nM	CCC(=O)N[C@@H](C(=O)N1CCN(C)CC1)[C@@H](C)c1ccc(NC(=O)[C@@H](NC(=O)c2cccn2CC)C2CCCCC2)c(F)c1 [Compound 254]	–
10 to 100 nM	CCC(=O)N[C@@H](C(=O)N1CCN(C)CC1)[C@@H](C)c1ccc(NC(=O)[C@@H](NC(=O)c2coc3cc(OC)ccc23)C2CCCCC2)c(F)c1 [Compound 255]	–
10 to 100 nM	CCC(=O)N[C@@H](C(=O)N1CCN(C)CC1)[C@@H](C)c1ccc(NC(=O)[C@@H](NC(=O)c2ccnn2C(C)C)C2CCCCC2)c(F)c1 [Compound 256]	–
< 10 nM	CCC(=O)N[C@@H](C(=O)N1CCN(C)CC1)[C@@H](C)c1ccc(NC(=O)[C@@H](NC(=O)c2conc2CC)C2CCCCCC2)c(F)c1 [Compound 257]	–
< 10 nM	CCC(=O)N[C@@H](C(=O)N1CCN(C)CC1)[C@@H](C)c1ccc(NC(=O)[C@@H](NC(=O)c2coc3cc(OC)ccc23)C2CCCCCC2)c(F)c1 [Compound 258]	–
< 10 nM	CCC(=O)N[C@@H](C(=O)N1CCN(C)CC1)[C@@H](C)c1ccc(NC(=O)[C@@H](NC(=O)c2csc3ccccc23)C2CCCCCC2)c(F)c1 [Compound 259]	–
< 10 nM	CCC(=O)N[C@@H](C(=O)N1CCN(C)CC1)[C@@H](C)c1ccc(NC(=O)[C@@H](NC(=O)C(F)(F)c2csc(C)c2)C2CCCCCC2)c(F)c1 [Compound 265]	–
< 10 nM	CCC(=O)N[C@@H](C(=O)N1CCN(C)CC1)[C@@H](C)c1ccc(NC(=O)[C@@H](NC(=O)c2coc3c2COC3)C2CCCCCC2)c(F)c1 [Compound 266]	–
< 10 nM	CCC(=O)N[C@@H](C(=O)N1CCN(C)CC1)[C@@H](C)c1ccc(NC(=O)[C@@H](NC(=O)c2conc2C(C)C)C2CCCCCC2)c(F)c1 [Compound 268]	–
< 10 nM	CCC(=O)N[C@@H](C(=O)N1CCN(C)CC1)[C@@H](C)c1ccc(NC(=O)[C@@H](NC(=O)c2conc2C2CC2)C2CCCCCC2)c(F)c1 [Compound 269]	–
